Measurements taken from PMC12386934, “Characteristics and Potential of KSL, KSL-W, and Dadapin-1 Antimicrobial Peptides for Preventing Infections of Orthopedic Prosthetic Devices: Identifying the Most Robust Candidate” (International Journal of Molecular Sciences, 2025).
Values after ≈ are worked out from the molar mass of the structure shown. Where a SMILES comes first, the peptide text is derived from it.

Columns and labels:
Type in all cases: cell-based
E. coli cra4038 (EC) [1] = tested on: E. coli cra4038 (EC)
Excerpt: (§1) The experimental scheme reported in Figure 6 helped to simplify and optimize the in vitro testing of the antibacterial activity of the different AMPs. The initial transparent microtiter plate for the determination of the minimum inhibitory concentration (MIC) by optical density (OD) measurement was conveniently used as a starting point not only for the alterative determination of the MIC by luminescence but also for the minimum bactericidal concentration (MBC) and for the minimum biofilm inhibitory concentration (MBIC), as explained below. For every test peptide, at least three independent experiments were performed on each bacterial strain per test condition (100% MHB and 20% MHB). The sole exception to this rule was when MIC values were on rare occasions found to be greater than 500 µg/mL. Under these circumstances, two consecutive experiments were performed to confirm the results. In this case, the antibacterial activity was considered insignificant and the third experiment was generally considered unnecessary.
(§2) The antibacterial properties of the test AMPs were assayed under two distinct conditions of bacterial culture: (i) with bacteria cultured in undiluted Mueller–Hinton II Broth (MHB II) and (ii) with bacteria cultured in diluted MHB II as earlier described in Campoccia et al.. Briefly, a few colonies of each bacterial strain, taken from overnight cultures on Mueller–Hinton Agar plates (MHA, PO50007A, ThermoScientific, Thermo Fisher Scientific, Segrate, Italy), were resuspended in Mueller–Hinton II Broth (MHB II, 24107, Liofilchem, Roseto degli Abruzzi, Italy), either undiluted or at a 20% dilution in deionized water. The concentration of bacteria was adjusted to approximately 10^8 CFU/mL, as estimated by optical density reading at 625 nm, using a Hewlett Packard G1103A spectrophotometer (Waldbronn, Germany). The bacterial suspension was further diluted 1:100 in 100% or 20% MHB II.
(§3) Serial 1:2 dilutions of all the test peptides were prepared in sterile deionized water starting from a stock solution of 1 mg/mL. Microtiter plates (96-Well CytoOne® Plate, CC7672-7596, Starlab S.r.l., Milano, Italy) were prepared by adding a volume of 100 µL of inoculum to 100 µL of treatment. Each AMP dilution was assayed in triplicate; each microplate included triplicate wells for the blank (100 µL of sterile distilled water and 100 µL of sterile MHB II), and 3 to 6 wells for reference control of 100% growth (100 µL of sterile deionized water and 100 µL of MHB II inoculated with the bacterium). Positive controls were performed in triplicate wells with 100 µL of a 10 mg/mL gentamicin solution (G1272, Sigma Aldrich, Milan, Italy) and with 100 µL of a solution containing 10,000 units/mL of penicillin and 10,000 µg/mL of streptomycin (penicillin–streptomycin, 15140-122, Life Technologies, Monza, Italy).
(§4) The wells of the microplate, initially used for the determination of the MIC, were rinsed twice with 220 µL of phosphate-buffered solution (PBS) to remove loosely attached and planktonic bacteria. A total of 100 µL of fresh PBS and 100 µL of Bac-Titer Glo solution (G8231, Promega Italia S.r.l., Milan, Italy) were added to each well. After a 10 min incubation, a volume of 100 µL was transferred to a new microplate for luminescence determination as described above. As a general rule, the MBIC value was identified as the concentration at which a reduction of at least a log in the metabolic activity was observed.

[2] = tested on: S. epidermidis cra4034 (SE 01); settings: cra4034 (SE 01, 24 h)
Excerpt: as §1, §2, §3, §4

[3] = tested on: S. epidermidis cra4029 (SE 02); settings: cra4029 (SE 02, 24 h)
Excerpt: as §1, §2, §3, §4

[4] = tested on: E. faecalis cra4024 (EF 01)
Excerpt: as §1, §2, §3, §4

[5] = tested on: S. aureus cra2198 (SA 02); settings: cra2198 (SA 02, 24 h)
Excerpt: as §1, §2, §3, §4

[6] = tested on: P. aeruginosa cra3840 (PA 02)
Excerpt: as §1, §2, §3, §4

[7] = tested on: S. aureus ATCC 25923 (SA 00); settings: ATCC 25923, 24 h
Excerpt: as §1, §2, §3, §4

[8] = tested on: S. aureus cra4030 (SA 01); settings: cra4030 (SA 01, 24 h)
Excerpt: as §1, §2, §3, §4

[9] = tested on: S. epidermidis cra4029 (SE 02)
Excerpt: as §1, §2, §3
(§5) After a 1-day incubation at 37 °C, the MIC was determined by two distinct methods: (1) optical density measurement and (2) bioluminescence reading. In the first case, the optical density of the microtiter plates was read directly at a wavelength of 600 nm and the MIC was estimated from the curves obtained by plotting the OD measurements. For the bioluminescence reading, after gentle resuspension, 100 µL of each treated culture was transferred to a new 96-well non-treated plate (236105/237105, Life Technologies, Monza, Italy) and the metabolic activity was determined by the kit Bac-Titer Glo Microbial Cell Viability Assay (G8231, Promega Italia S.r.l, Milan, Italy). Optical density and bioluminescence were read by a Modulus II multifunction plate reader (Turner BioSystems, Sunnyvale, CA, USA) or, alternatively, by an Infinite M Plex (Tecan Group Ltd., Männedorf, Switzerland). As earlier described in [24], in the case of luminescence, the MIC was identified from the curves of growth inhibition as the first concentration leading to a 1-log reduction in bacterial growth (i.e., 90% growth inhibition). […]

[10] = tested on: E. faecalis cra4024 (EF 01); remark: listed apart in the source
Excerpt: as §1, §2, §3, §5

[11] = tested on: S. aureus cra2198 (SA 02)
Excerpt: as §1, §2, §3, §5

[12] = tested on: E. faecalis cra4033 (EF 02)
Excerpt: as §1, §2, §3, §5

entire panel of strains = assay: MBC, all strains of the panel; settings: undiluted MHB II, re-tested plating 10 μL
Protocol: For assessing the MBC, 10 μL of bacterial suspensions was taken from wells corresponding to MIC, 2× MIC, and 4× MIC and then plated on MHA plates. After one day of incubation at 37 °C, the agar plates were examined for bacterial growth. The MBC was determined as the lowest dilution causing absence of bacterial colonies growth on the plate.

E. coli cra4038 (EC) [13] = tested on: E. coli cra4038 (EC); remark: listed apart in the source
Excerpt: as §1
as §2, with “II. […]” for “II.”
(§6) For assessing the MBC, 10 μL of bacterial suspensions was taken from wells corresponding to MIC, 2× MIC, and 4× MIC and then plated on MHA plates. […] The MBC was determined as the lowest dilution causing absence of bacterial colonies growth on the plate.
(§7) In order to assess the extent of the interference of the culture medium composition with the antibacterial activity of the three peptides, a “Rate of Abatement” of the bactericidal properties (RoA) was calculated using the following formula (Equation (1)):RoA = MBCMHB/MBC20% MHB(1)
(§8) RoA indicates the fold increases in the MBC when tested in undiluted medium […], i.e., with maximal interference of broth polyanionic substances, with respect to diluted medium […]. […] A more versatile measure to express the loss of activity was calculated as follows. […]

[14] = tested on: S. epidermidis cra4029 (SE 02); remark: listed apart in the source
Excerpt: as §1
as §2, with “II. […]” for “II.”
as §6, §7, §8

[15] = tested on: E. faecalis cra4033 (EF 02); remark: listed apart in the source
Excerpt: as §1
as §2, with “II. […]” for “II.”
as §6, §7, §8

For `CC(C)C[C@H](NC(=O)CN)C(=O)N[C@@H](CC(C)C)C(=O)N[C@@H](CCCNC(=N)N)C(=O)N[C@@H](C)C(=O)N[C@@H](CO)C(=O)N[C@@H](CO)C(=O)N[C@@H](CCCCN)C(=O)N[C@@H](Cc1c[nH]c2ccccc12)C(=O)NCC(=O)N[C@@H](CCCNC(=N)N)C(=O)N[C@@H](CCCCN)C(=O)N[C@@H](Cc1ccc(O)cc1)C(=O)N[C@@H](Cc1ccc(O)cc1)C(=O)N[C@H](C(=O)N[C@@H](CC(=O)O)C(=O)N[C@@H](CC(C)C)C(=O)N[C@@H](C)C(=O)NCC(=O)N[C@@H](CS)C(=O)N[C@@H](C)C(=O)N[C@@H](CCCCN)C(=O)N[C@@H](C)C(=O)O)C(C)C` [Dadapin-1] (H-GLLRASSKWGRKYYVDLAGCAKA-OH), the “LR, Log10 reduction in bacterial metabolism for a given MBIC” value (shortened to “LR, Log10 reduction”) (E. coli cra4038 (EC) [1]; cra4038 (EC)) was 2 LR, the MBIC (E. coli cra4038 (EC) [1]; cra4038 (EC, 24 h)) was 15.63–31.25 (31.25) 2LR: 31.25 μg/mL and the MBIC [2] was 3.91 to 7.81 µg/mL. For the same molecule, the MBIC [3] was over 500 µg/mL, the “LR, Log10 reduction” value ([4]; cra4024 (EF 01)) was 3 LR and the MBIC ([4]; cra4024 (EF 01, 24 h)) was over 500 µg/mL. For the same molecule, the MBIC [5] was 500 µg/mL, the “LR, Log10 reduction” value ([6]; cra3840 (PA 02)) was 3 LR and the MBIC ([6]; cra3840 (PA 02, 24 h)) was over 500 µg/mL. The MBIC [7] was 250 to 500 µg/mL, the MBIC [8] was 7.81 to 15.63 µg/mL and the MIC [9] was over 500 µg/mL. The MIC [10] was over 500 µg/mL, the MIC [11] was 15.63 µg/mL (≈ 6.22 µM) and the MIC [12] was over 500 µg/mL. The MBC (entire panel of strains) was “exceeded 500 μg/mL”, the MBC (E. coli cra4038 (EC) [13]) was 31.25 to 62.5 µg/mL and the MBC [14] was 15.63 µg/mL (≈ 6.22 µM). For the same molecule, the MBC [15] was over 500 µg/mL.
